Test results as given in patent publication US8765779B2, “Tricyclic derivatives and their pharmaceutical use and compositions” (Cephalon, Inc., priority 2009, dated 2014).
pKi: −log10 of the molar value.

These compounds were tested against T1, human 5-HT6 receptor (Homo sapiens, UniProt P50406) (assay: Human 5-HT6 Receptor Binding Assay ([3H]LSD displacement, scintillation beads)). Details: membranes of CHO-K1 cells with recombinant human 5-HT6, 4 nM [3H]LSD; Table 1, class symbols; read-out: h5-HT6 (Ki).
T1 construct: host or cells: CHO-K1 cells, stably transfected; membranes prepared in house
T1 sequence (P50406 whole entry): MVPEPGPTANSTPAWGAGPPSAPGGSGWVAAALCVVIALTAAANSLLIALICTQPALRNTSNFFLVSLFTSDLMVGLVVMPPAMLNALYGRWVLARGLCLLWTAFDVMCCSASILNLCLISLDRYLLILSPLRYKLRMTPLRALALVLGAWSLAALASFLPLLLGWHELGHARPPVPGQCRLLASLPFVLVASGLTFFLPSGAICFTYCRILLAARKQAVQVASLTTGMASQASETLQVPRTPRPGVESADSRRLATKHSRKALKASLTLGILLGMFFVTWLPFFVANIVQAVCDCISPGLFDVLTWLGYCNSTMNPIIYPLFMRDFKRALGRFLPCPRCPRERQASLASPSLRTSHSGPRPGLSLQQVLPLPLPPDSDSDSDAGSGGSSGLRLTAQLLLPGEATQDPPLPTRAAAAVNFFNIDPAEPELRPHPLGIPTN

pKi	Compound
> 6.30	O=S(=O)(c1cncc(C(F)(F)F)c1)c1ccc2c(c1)OC1CNCCC21 (stereo not drawn) [Example 464]
> 6.30	Cc1ccc(S(=O)(=O)Oc2ccc3c(c2)C2CCNCC2O3)cc1C (stereo not drawn) [Example 706]
> 6.30	COCCCOc1cccc(S(=O)(=O)c2ccc3c(c2)OC2CNCCC32)c1 (stereo not drawn) [Example 576]
> 6.30	O=S(=O)(c1ccc2c(c1)OC1CNCCC21)c1cccc(Cl)c1F (stereo not drawn) [Example 422]
> 6.30	O=S(=O)(c1ccc2c(c1)OC1CNCCC21)c1cccc2ccccc12 (stereo not drawn) [Example 114]
> 6.30	O=S(=O)(c1cccc(OCC2CCOCC2)c1)c1ccc2c(c1)OC1CNCCC21 (stereo not drawn) [Example 581, 7-{[3-(tetrahydro-2H-pyran-4-ylmethoxy)phenyl]sulfonyl}-1,2,3,4,4a,9a-hexahydro[1]benzofuro[2,3-c]pyridine]
> 6.30	O=S(=O)(c1cccc(OC(F)(F)F)c1)c1ccc2c(c1)OC1CNCCC21 (stereo not drawn) [Example 160, 7-{[3-(trifluoromethoxy)phenyl]sulfo-nyl}-1,2,3,4,4a,9a-hexahydro[1]benzofuro[2,3-c]pyridine]
> 6.30	O=S(=O)(c1cccc(F)c1)c1ccc2oc3c(c2c1)CCNC3C1CCCC1 (stereo not drawn) [Example 513]
> 6.30	COc1cc(OC)cc(S(=O)(=O)c2ccc3c(c2)OC2CNCCC32)c1 (stereo not drawn) [Example 480]
< 6.00	CC(C)S(=O)(=O)Nc1ccc2c(c1)C1CCNCC1O2 (stereo not drawn) [Example 832]
> 6.30	O=S(=O)(c1ccccc1)c1ccc2c(c1)OC1CN(C3CCCC3)CCC21 (stereo not drawn) [Example 609]
6.00 to 6.30	O=S(=O)(c1ccc(C(F)(F)F)cc1)c1ccc2c(c1)OC1CNCCC21 (stereo not drawn) [Example 151]
> 6.30	CC(C)c1ccc(S(=O)(=O)Oc2ccc3c(c2)C2CCNCC2O3)cc1 (stereo not drawn) [Example 716]
< 6.00	O=S(=O)(c1ccc(-c2ccccc2)cc1)c1ccc2c(c1)OC1CNCCC21 (stereo not drawn) [Example 145]
< 6.00	CN(C)C(=O)c1c(F)cccc1S(=O)(=O)c1ccc2c(c1)OC1CNCCC21 (stereo not drawn) [Example 476]
> 6.30	O=S(=O)(c1cccc(OCC2CC2)c1)c1ccc2c(c1)OC1CNCCC21 (stereo not drawn) [Example 555]
> 6.30	O=S(=O)(c1ccc2c(c1)OC1CNCCC21)c1cccc(Cl)c1Cl (stereo not drawn) [Example 162]
> 6.30	O=S(=O)(c1cccc(OCC(F)F)c1)c1ccc2c(c1)OC1CNCCC21 (stereo not drawn) [Example 578]
> 6.30	COc1cc(OC2CCC2)cc(S(=O)(=O)c2ccc3c(c2)OC2CNCCC32)c1 (stereo not drawn) [Example 583]
> 6.30	O=S(=O)(c1cccc(F)c1)c1ccc2oc3c(c2c1)CCNC3 [Example 244, 6-[(3-fluorophenyl)sulfonyl]-1,2,3,4-tetrahydro[1]benzofuro[2,3-c]pyridine]
> 6.30	O=S(=O)(c1ccc2oc3c(c2c1)CCNC3)c1c(F)c(F)cc(F)c1F [Example 274]
> 6.30	COc1cccc(S(=O)(=O)c2ccc3c4c(oc3c2)CNCC4)c1 [Example 199]
> 6.30	CC(C)Oc1cccc(S(=O)(=O)c2ccc3c4c(oc3c2)C2(CCOC2)NCC4)c1 (single isomer, unassigned) [Example 31, 7-{[3-(propan-2-yloxy)phenyl]sulfonyl}-3,4,4′,5′-tetrahydro-2H-spiro[1-benzofuro[2,3-c]pyridine-1,3′-furan]]

pKi	Compound
> 6.30	O=S(=O)(c1ccc(F)c(Cl)c1)c1ccc2c3c(oc2c1)CNCC3 [Example 193]
> 6.30	COCC1NCCc2c1oc1cc(S(=O)(=O)c3cccc(Cl)c3)ccc21 (stereo not drawn) [Example 502]
> 6.30	O=S(=O)(c1ccccc1)c1ccc2c(c1)OC1CNCCC21 (stereo not drawn) [Example 321, 7-(phenylsulfonyl)-1,2,3,4,4a,9a-hexahydro[1]benzofuro[2,3-c]pyridine]
6.00 to 6.30	O=S(=O)(c1ccc2c(c1)C1CCNCC1O2)c1ccccc1Cl (stereo not drawn) [Example 169]
> 6.30	CC1(C)NCCc2c1oc1cc(S(=O)(=O)c3cc(F)cc(F)c3)ccc21 [Example 293]
< 6.00	O=S(=O)(c1ccc2c(c1)C1CCNCC1O2)N1CCC2CCCCC2C1 (stereo not drawn) [Example 860]
> 6.30	Cc1ccc(F)cc1S(=O)(=O)c1ccc2c(c1)OC1CNCCC21 (stereo not drawn) [Example 130]
< 6.00	O=S(=O)(NCCc1ccccc1)c1ccc2c(c1)C1CCNCC1O2 (stereo not drawn) [Example 855]
< 6.00	O=S(=O)(Nc1ccccc1)c1ccc2c(c1)C1CCNCC1O2 (stereo not drawn) [Example 848]
> 6.30	CC1(C(F)(F)F)NCCc2c1oc1cc(S(=O)(=O)c3cccc(F)c3)ccc21 (racemic) [Example 37, 7-[(3-fluorophenyl)sulfonyl]-1-methyl-1-(trifluoromethyl)-1,2,3,4-tetrahydro[1]benzofuro[2,3-c]pyridine]
< 6.00	O=S(=O)(Oc1ccc2c(c1)C1CCNCC1O2)c1ccc(-c2cnco2)cc1 (stereo not drawn) [Example 734]
> 6.30	O=S(=O)(c1ccc2c(c1)OC1CNCCC21)c1cccc2c1OCCO2 (stereo not drawn) [Example 457]
6.00 to 6.30	O=S(=O)(Nc1cccc(Cl)c1)c1ccc2c(c1)C1CCNCC1O2 (stereo not drawn) [Example 853]
> 6.30	Cc1c(OCc2cccnc2)cccc1S(=O)(=O)c1ccc2c(c1)OC1CNCCC21 (stereo not drawn) [Example 566]
> 6.30	COc1c(F)cc(F)cc1S(=O)(=O)c1ccc2c(c1)OC1CNCCC21 (stereo not drawn) [Example 463]
> 6.30	O=S(=O)(Oc1ccc2c(c1)C1CCNCC1O2)c1ccccc1Cl (stereo not drawn) [Example 711]
< 6.00	O=S(=O)(c1ccc2c(c1)C1CCNCC1O2)N1CCC2(CC1)OCc1ccccc12 (stereo not drawn) [Example 862]
< 6.00	O=S(=O)(c1ccc(Cl)cc1)c1ccc2c(c1)C1CCNCC1O2 (stereo not drawn) [Example 335]
> 6.30	O=S(=O)(c1ccc2oc3c(c2c1)CCNC3)c1ccccc1Cl [Example 276]
> 6.30	CC1(C)NCCc2c1oc1cc(S(=O)(=O)c3cccc(Cl)c3)ccc21 [Example 17, 7-[(3-chlorophenyl)sulfonyl]-1,1-dimethyl-1,2,3,4-tetrahydro[1]benzofuro[2,3-c]pyridine]
< 6.00	O=S(=O)(c1ccc(Oc2ccccc2)cc1)c1ccc2c(c1)C1CCNCC1O2 (stereo not drawn) [Example 173]
> 6.30	CCOc1cc(F)cc(S(=O)(=O)c2ccc3c(c2)OC2CNCCC32)c1 (stereo not drawn) [Example 401]
> 6.30	O=S(=O)(c1cccc(F)c1)c1ccc2c3c(oc2c1)C1(CCC1)NCC3 [Example 25, 7-[(3-fluorophenyl)sulfonyl]-3,4-dihydro-2H-spiro[1-benzofuro[2,3-c]pyridine-1,1′-cyclobutane]]

pKi	Compound
< 6.00	Cc1nc(S(=O)(=O)Oc2ccc3c(c2)OC2CNCCC32)cn1C (stereo not drawn) [Example 645]
< 6.00	O=S(=O)(Nc1ccc2c(c1)C1CCNCC1O2)c1ccccc1 (stereo not drawn) [Example 817, N-(1,2,3,4,4a,9a-Hexahydro[1]benzofuro[2,3-c]pyridin-6-yl)benzenesulfonamide]
> 6.30	O=S(=O)(Oc1ccc2c(c1)OC1CNCCC21)c1ccc(-c2ccccc2)cc1 (stereo not drawn) [Example 681]
> 6.30	O=S(=O)(c1ccc(Cl)cc1)c1ccc2oc3c(c2c1)CCNC3 [Example 250]
> 6.30	O=S(=O)(Oc1ccc2c(c1)OC1CNCCC21)c1cccc(Cl)c1 (stereo not drawn) [Example 653]
> 6.30	O=S(=O)(c1ccc2c3c(oc2c1)CNCC3)c1cccnc1F [Example 434]
< 6.00	COC(=O)c1cc(Cl)cc(S(=O)(=O)c2ccc3c(c2)OC2CNCCC32)c1 (stereo not drawn) [Example 387]
> 6.30	O=S(=O)(c1ccc(F)c(Cl)c1)c1ccc2oc3c(c2c1)CCNC3 [Example 258]
> 6.30	COc1cccc(S(=O)(=O)c2ccc3c(c2)OC2CNCCC32)c1F (stereo not drawn) [Example 404]
> 6.30	O=S(=O)(Oc1ccc2c(c1)OC1CNCCC21)c1ccccc1Cl (stereo not drawn) [Example 654]
> 6.30	COCCN1CCc2c(oc3cc(S(=O)(=O)c4ccccc4)ccc23)C1 [Example 594]
< 6.00	COCC1NCCc2c1oc1ccc(S(=O)(=O)c3cccc(F)c3)cc21 (stereo not drawn) [Example 515]
> 6.30	O=S(=O)(c1ccc(C(F)(F)F)cc1)c1ccc2oc3c(c2c1)CCNC3 [Example 278]
> 6.30	O=S(=O)(c1cccc(OC(F)(F)F)c1)c1ccc2c3c(oc2c1)C1(CCOCC1)NCC3 [Example 300, 7-{[3-(trifluoromethoxy)phenyl]sulfo-nyl}-2′,3,3′,4,5′,6′-hexahydro-2H-spiro[1-benzofuro[2,3-c]pyridine-1,4′-pyran]]
> 6.30	O=S(=O)(c1cccc(Cl)c1)c1ccc2c3c(oc2c1)CN(CCO)CC3 [Example 599]
< 6.00	O=C(COc1cccc(S(=O)(=O)c2ccc3c(c2)OC2CNCCC32)c1)N1CCCC1 (stereo not drawn) [Example 564]
> 6.30	O=S(=O)(Oc1ccc2c(c1)OC1CNCCC21)c1ccc2ccccc2c1 (stereo not drawn) [Example 661]
> 6.30	Cc1cc(S(=O)(=O)c2ccc3oc4c(c3c2)CCNC4)ccc1F [Example 268]
> 6.30	O=S(=O)(c1cc(F)cc(Cl)c1)c1ccc2c3c(oc2c1)CNCC3 [Example 207]
> 6.30	COCC1(C)NCCc2c1oc1cc(S(=O)(=O)c3cccc(F)c3)ccc21 (stereo not drawn) [Example 633]
> 6.30	O=S(=O)(c1cccc(OCc2ccncc2)c1)c1ccc2c(c1)OC1CNCCC21 (stereo not drawn) [Example 561]
> 6.30	O=S(=O)(Oc1ccc2c(c1)OC1CNCCC21)c1ccc(-c2cnco2)cc1 (stereo not drawn) [Example 672]
> 6.30	O=S(=O)(c1ccc(Cl)c(Cl)c1)c1ccc2c(c1)OC1CNCCC21 (stereo not drawn) [Example 120]

Compound	pKi
CC12CCNCC1Oc1ccc(OS(=O)(=O)Cc3ccccc3F)cc12 (stereo not drawn) [Example 786]	> 6.30
CC12CCNCC1Oc1cc(S(=O)(=O)c3cccc4c3OCCO4)ccc12 (stereo not drawn) [Example 468]	> 6.30
CC12CCNCC1Oc1ccc(OS(=O)(=O)c3ccc(C(F)(F)F)cc3)cc12 (stereo not drawn) [Example 778]	< 6.00
CC12CCNCC1Oc1ccc(OS(=O)(=O)c3ccc(-c4ccon4)s3)cc12 (stereo not drawn) [Example 781]	< 6.00
COc1ccccc1S(=O)(=O)c1ccc2c(c1)OC1CNCCC21C (racemic) [Example 3, 7-[(2-methoxyphenyl)sulfonyl]-4a-methyl-1,2,3,4,4a,9a-hexahydro[1]benzofuro[2,3-c]pyridine]	> 6.30
CC12CCNCC1Oc1ccc(OS(=O)(=O)c3ccc(-c4cnco4)cc3)cc12 (stereo not drawn) [Example 777]	< 6.00
